Assay results published in ChEMBL document CHEMBL1152089, “Alkyl ether derivatives of the FK-506 related, immunosuppressive macrolide L-683,742 (C31-O-desmethyl ascomycin)” (Bioorg Med Chem Lett, 1994).

Experiments:
Mus musculus = species on record: Mus musculus; experiment: In vitro immunosuppressive activity against proliferation of antigen stimulated murine splenic T cells; type: functional, organism-based; conditions: T-cell
[1] = target: T1, Peptidyl-prolyl cis-trans isomerase FKBP1A (Homo sapiens, UniProt P62942); experiment: Ability to bind the major cystolic receptor FK506 binding protein 12 by using competitive binding assay
T1 sequence (P62942 whole entry): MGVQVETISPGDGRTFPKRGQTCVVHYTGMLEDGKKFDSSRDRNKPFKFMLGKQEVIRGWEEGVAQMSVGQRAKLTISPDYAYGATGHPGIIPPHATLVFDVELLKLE

[2] = target: T1, Peptidyl-prolyl cis-trans isomerase FKBP1A; experiment: Ability to bind the major cystolic receptor FKBP12 by using competitive binding assay

| EC50 [1] [nM] | EC50 [2] [nM] | Structure (SMILES) | IC50 (Mus musculus) [nM] |
| --- | --- | --- | --- |
| 2.7 | – | C=CCO[C@@H]1C[C@H](/C=C(\C)[C@H]2OC(=O)[C@@H]3CCCCN3C(=O)C(=O)C3(O)O[C@H]([C@@H](OC)C[C@@H](C)C/C(C)=C/[C@@H](CC)C(=O)C[C@H](O)[C@H]2C)[C@@H](OC)C[C@@H]3C)CC[C@H]1O | 0.68 |
| 6.1 | – | C=CCO[C@@H]1CC[C@@H](/C=C(\C)[C@H]2OC(=O)[C@@H]3CCCCN3C(=O)C(=O)C3(O)O[C@H]([C@@H](OC)C[C@@H](C)C/C(C)=C/[C@@H](CC)C(=O)C[C@H](O)[C@H]2C)[C@@H](OC)C[C@@H]3C)C[C@H]1O | 5.5 |
| – | – | C=C(C)CO[C@@H]1C[C@H](/C=C(\C)[C@H]2OC(=O)[C@@H]3CCCCN3C(=O)C(=O)C3(O)O[C@H]([C@@H](OC)C[C@@H](C)C/C(C)=C/[C@@H](CC)C(=O)C[C@H](O)[C@H]2C)[C@@H](OC)C[C@@H]3C)CC[C@H]1O | 1.9 |
| 14.9 | – | C=CC(C)O[C@@H]1CC[C@@H](/C=C(\C)[C@H]2OC(=O)[C@@H]3CCCCN3C(=O)C(=O)C3(O)O[C@H]([C@@H](OC)C[C@@H](C)C/C(C)=C/[C@@H](CC)C(=O)C[C@H](O)[C@H]2C)[C@@H](OC)C[C@@H]3C)C[C@H]1O (some centres not stated) | 6.6 |
| 15.6 | – | CC[C@@H]1/C=C(\C)C[C@H](C)C[C@H](OC)[C@H]2OC(O)(C(=O)C(=O)N3CCCC[C@H]3C(=O)O[C@H](/C(C)=C/[C@@H]3CC[C@@H](OCc4ccco4)[C@H](O)C3)[C@H](C)[C@@H](O)CC1=O)[C@@H](C)C[C@@H]2OC | 7.8 |
| 5 | – | CC[C@@H]1/C=C(\C)C[C@H](C)C[C@H](OC)[C@H]2O[C@@](O)(C(=O)C(=O)N3CCCC[C@H]3C(=O)O[C@H](/C(C)=C/[C@@H]3CC[C@@H](O)[C@H](O)C3)[C@H](C)[C@@H](O)CC1=O)[C@@H](C)C[C@@H]2OC | 1.8 |
| 6.6 | – | C=CC(C)O[C@@H]1C[C@H](/C=C(\C)[C@H]2OC(=O)[C@@H]3CCCCN3C(=O)C(=O)C3(O)O[C@H]([C@@H](OC)C[C@@H](C)C/C(C)=C/[C@@H](CC)C(=O)C[C@H](O)[C@H]2C)[C@@H](OC)C[C@@H]3C)CC[C@H]1O (some centres not stated) | 0.73 |
| 12 | – | CC[C@@H]1/C=C(\C)C[C@H](C)C[C@H](OC)[C@H]2OC(O)(C(=O)C(=O)N3CCCC[C@H]3C(=O)O[C@H](/C(C)=C/[C@@H]3CC[C@@H](OCc4ccsc4)[C@H](O)C3)[C@H](C)[C@@H](O)CC1=O)[C@@H](C)C[C@@H]2OC | 4.4 |
| 7 | – | C/C=C/CO[C@@H]1C[C@H](/C=C(\C)[C@H]2OC(=O)[C@@H]3CCCCN3C(=O)C(=O)C3(O)O[C@H]([C@@H](OC)C[C@@H](C)C/C(C)=C/[C@@H](CC)C(=O)C[C@H](O)[C@H]2C)[C@@H](OC)C[C@@H]3C)CC[C@H]1O | 2.1 |
| 4.6 | – | CC[C@@H]1/C=C(\C)C[C@H](C)C[C@H](OC)[C@H]2OC(O)(C(=O)C(=O)N3CCCC[C@H]3C(=O)O[C@H](/C(C)=C/[C@@H]3CC[C@@H](O)[C@H](OCc4ccco4)C3)[C@H](C)[C@@H](O)CC1=O)[C@@H](C)C[C@@H]2OC | 3.6 |
| 9.2 | – | C/C=C/CO[C@@H]1CC[C@@H](/C=C(\C)[C@H]2OC(=O)[C@@H]3CCCCN3C(=O)C(=O)C3(O)O[C@H]([C@@H](OC)C[C@@H](C)C/C(C)=C/[C@@H](CC)C(=O)C[C@H](O)[C@H]2C)[C@@H](OC)C[C@@H]3C)C[C@H]1O | 8.6 |
| – | 3.4 | CC[C@@H]1/C=C(\C)C[C@H](C)C[C@H](OC)[C@H]2OC(O)(C(=O)C(=O)N3CCCC[C@H]3C(=O)O[C@H](/C(C)=C/[C@@H]3CC[C@@H](O)[C@H](OC(C)C)C3)[C@H](C)[C@@H](O)CC1=O)[C@@H](C)C[C@@H]2OC | 0.59 |
| – | – | C=C(C)CO[C@@H]1CC[C@@H](/C=C(\C)[C@H]2OC(=O)[C@@H]3CCCCN3C(=O)C(=O)C3(O)O[C@H]([C@@H](OC)C[C@@H](C)C/C(C)=C/[C@@H](CC)C(=O)C[C@H](O)[C@H]2C)[C@@H](OC)C[C@@H]3C)C[C@H]1O | 3.4 |
| 10.3 | – | CC[C@@H]1/C=C(\C)C[C@H](C)C[C@H](OC)[C@H]2OC(O)(C(=O)C(=O)N3CCCC[C@H]3C(=O)O[C@H](/C(C)=C/[C@@H]3CC[C@@H](O)[C@H](OCc4cccs4)C3)[C@H](C)[C@@H](O)CC1=O)[C@@H](C)C[C@@H]2OC | 1.1 |
| – | – | CC[C@@H]1/C=C(\C)C[C@H](C)C[C@H](OC)[C@H]2OC(O)(C(=O)C(=O)N3CCCC[C@H]3C(=O)O[C@H](/C(C)=C/[C@@H]3CC[C@@H](OC(C)C)[C@H](O)C3)[C@H](C)[C@@H](O)CC1=O)[C@@H](C)C[C@@H]2OC | 9.1 |
| 5.7 | – | CC[C@@H]1/C=C(\C)C[C@H](C)C[C@H](OC)[C@H]2OC(O)(C(=O)C(=O)N3CCCC[C@H]3C(=O)O[C@H](/C(C)=C/[C@@H]3CC[C@@H](O)[C@H](OCc4ccsc4)C3)[C@H](C)[C@@H](O)CC1=O)[C@@H](C)C[C@@H]2OC | 3.2 |
| 11.8 | – | CC[C@@H]1/C=C(\C)C[C@H](C)C[C@H](OC)[C@H]2OC(O)(C(=O)C(=O)N3CCCC[C@H]3C(=O)O[C@H](/C(C)=C/[C@@H]3CC[C@@H](OCc4cccs4)[C@H](O)C3)[C@H](C)[C@@H](O)CC1=O)[C@@H](C)C[C@@H]2OC | 2.8 |
| – | – | C=CC[C@@H]1/C=C(\C)C[C@H](C)C[C@H](OC)[C@H]2O[C@@](O)(C(=O)C(=O)N3CCCC[C@H]3C(=O)O[C@H](/C(C)=C/[C@@H]3CC[C@@H](O)[C@H](OC)C3)[C@H](C)[C@@H](O)CC1=O)C(C)C[C@@H]2OC (single isomer, unassigned) [TACROLIMUS ANHYDROUS] | 0.29 |
